Measured values from patent publication US20080280974A1, “Spiro compounds for treatment of inflammatory disorders” (priority 2007, published 2008).

Experiments:
[1] = system: Balb/CJ mice, ovalbumin-sensitized and challenged; test: Mouse model of asthma: methacholine-induced airway reactivity (Penh) in ovalbumin-sensitized mice; format: in vivo; settings: po, 768 h, 50 mg/kg p.o., days 26-32, % inhibition of the PenH vs McH dose AUC compared with vehicle control, day 32, read-out: Reduction of Penh AUC at 50 mg/kg p.o.
Experimental: Protocol for Testing Compounds in a Mouse Model of Asthma
Male 5-6 week old Balb/CJ mice were obtained from Jackson Laboratories (Bar Harbor, Me.). All experimental animals were used in accordance to Institutional Animal Care and Use Committee of AtheroGenics, Inc. Mice were sensitized by administering an intraperitoneal injection of 20 μg of ovalbumin (Calbiochem, La Jolla, Calif.) adsorbed in 2 mg of alum (Imject Alum; Pierce, Rockford, Ill.) on day 0 and 14. A group of mice received saline and served as negative control animals. The mice were challenged by aerosol exposure to ovalbumin (1% [wt/vol]) for 25 minutes on 3 consecutive days (days 28, 29, and 30) in a plexiglas exposure chamber coupled to an Aeroneb nebulizer (Buxco Electronics, Wilmington, N.C.). Experimental compounds were dissolved in Glycofurol/PEG 300/Tween (35%/55%/10%) (Sigma-aldrich; Milwaukee, Wis.). Animals were dosed orally with either test compound or vehicle (6 ml/kg dosing volume) on days 26-32 of study. Compound or vehicle was administered 2 hour before the aerosol challenge on days 28, 29, and 30 and 1 hour before airway reactivity measurement on day 32.
Methacholine-induced airway reactivity was assessed on day 32. Methacholine was administered in increasing concentrations ([…], 1.5, 3, 6, 12, 25, and 50 mg/ml) to unrestrained mice. Increases in airway resistance to Methacholine were determined as enhanced pause, (Penh) values, during and after the exposure (6-minute total analysis time). Mice were then humanely euthanized with an overdose of ketamine/xylazine and plasma samples collected for determination of drug levels. The data is presented as the % inhibition of the PenH vs McH dose AUC compared with the vehicle control.
Data analysis was conducting using the software package, JMP (SAS Institute Inc; Cary, N.C.). The Dunnett's multiple comparison test was used to compare treatment group means to the vehicle control group. P values of less than 0.05 were considered statistically significant. The data (Table 1) are presented as the % inhibition of the PenH vs McH dose AUC compared with the vehicle control.

[2] = system: IL-6 secreted by human pulmonary artery endothelial cells (HPAEC); test: In vitro IL-6 assay: TNF-alpha-stimulated IL-6 secretion by HPAEC, ELISA; format: cell-based; settings: Endothelial cell, 10 microM compound, 20 hrs preincubation, then 2 ng/ml TNF-alpha for 4 hrs
Experimental: (§1) In Vitro IL-6 and IL-8 Assays
(§2) Compounds at dosing concentrations (with 0.2% DMSO vehicle) were incubated in EGM2MV cell media at 37° C. for overnight, added to 96-well plates seeded with confluent human pulmonary artery endothelial cells (HPAEC) for 20 hrs at 37° C., and then replaced with fresh dosing media containing 2 ng/ml tumor necrosis factor alpha for additional 4 hrs at 37° C. Afterwards, media was removed and used in ELISA assay to quantify the amount of IL-6 and IL-8 secreted by the cells using R&D Systems Duoset ELISA kits.

[3] = system: IL-8 secreted by human pulmonary artery endothelial cells (HPAEC); test: In vitro IL-8 assay: TNF-alpha-stimulated IL-8 secretion by HPAEC, ELISA; format: cell-based; settings: Endothelial cell, 10 microM compound, 20 hrs preincubation, then 2 ng/ml TNF-alpha for 4 hrs
Experimental: as §1, §2

For `Cc1cc2c(cc1O)C(C)(C)CC1(CC(C)(C)c3cc(OCC(=O)O)c(C)cc3O1)O2` (racemic) [Example 7, (±)-6′-(Hydroxy-4,4,4′,4′,7,7′-hexamethyl-2,2′-spirobichroman-6-yloxy)-acetic acid], the melting point was 227 to 229 °C, the inhibition in vivo at 50 mg/kg [1] was greater than 40% and the inhibition at 10 µM [2] was 12%. For the same compound, the inhibition at 10 µM [3] was 0%.
With `Cc1cc2c(cc1O)C(C)(C)CC1(CC(C)(C)c3cc(OCCCC(=O)O)c(C)cc3O1)O2` (racemic) [Example 12, 4-[(±)-(6′-Hydroxy-4,4,4′,4′,7,7′-hexamethyl-2,2′-spirobichroman-6-yloxy)-]butyric acid] the melting point was 173 to 174 °C, the inhibition in vivo at 50 mg/kg [1] was less than 20% and the inhibition at 10 µM [2] was 0%. The inhibition at 10 µM [3] was 0%.
Work on `Cc1cc2c(cc1OCC(=O)O)C(C)(C)CC1(CC(C)(C)c3cc(OCC(=O)O)c(C)cc3O1)O2` (racemic) [Example 21, (±)-[(4,4,4′,4′,7,7′-Hexamethyl-2,2′-spirobichroman-6,6′-diyl)bis(oxy)]-bis-acetic acid] yielded a melting point greater than 260 °C, an inhibition in vivo at 50 mg/kg [1] of 20 to 40% and an inhibition at 10 µM [2] of 25%. The inhibition at 10 µM [3] was 19%.
